Experiments:
Experiment in all cases: KinaseProfiler kinase assay
Assay type in all cases: biochemical
Blk(h) = Blk(h) (Homo sapiens, UniProt P51451)
Procedure, shortened: (§1)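 Kinase activity is followed by incorporation of 33P from [γ-33P]ATP in 8 mM MOPS pH 7.0 with 10 mM Mg acetate and 0.2 mM EDTA over 40 min at room temperature. Inhibition is scaled between no-kinase and phosphopeptide control wells.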

BrSK1(h) = BrSK1(h) (Homo sapiens, UniProt Q8TDC3)
Procedure, shortened: as §1

CDK2/cyclinA(h) = CDK2/cyclinA(h) (Homo sapiens, UniProt P24941)
Procedure, shortened: as §1

CDK5/p35(h) = CDK5/p35(h) (Homo sapiens, UniProt Q00535)
Procedure, shortened: as §1

CDK6/cyclinD3(h) = CDK6/cyclinD3(h) (Homo sapiens, UniProt Q00534)
CDK6/cyclinD3(h), sequence (Q00534 whole entry): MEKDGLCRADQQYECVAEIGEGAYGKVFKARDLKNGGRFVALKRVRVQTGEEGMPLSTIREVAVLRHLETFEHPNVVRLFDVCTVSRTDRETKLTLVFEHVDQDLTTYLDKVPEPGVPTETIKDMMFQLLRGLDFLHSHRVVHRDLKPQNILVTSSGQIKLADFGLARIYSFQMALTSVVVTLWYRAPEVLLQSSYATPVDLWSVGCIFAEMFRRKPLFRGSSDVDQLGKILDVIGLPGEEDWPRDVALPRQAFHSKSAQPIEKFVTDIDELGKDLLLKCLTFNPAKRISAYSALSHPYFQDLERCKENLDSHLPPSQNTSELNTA
CDK6/cyclinD3(h), sequence (P30281 whole entry partner): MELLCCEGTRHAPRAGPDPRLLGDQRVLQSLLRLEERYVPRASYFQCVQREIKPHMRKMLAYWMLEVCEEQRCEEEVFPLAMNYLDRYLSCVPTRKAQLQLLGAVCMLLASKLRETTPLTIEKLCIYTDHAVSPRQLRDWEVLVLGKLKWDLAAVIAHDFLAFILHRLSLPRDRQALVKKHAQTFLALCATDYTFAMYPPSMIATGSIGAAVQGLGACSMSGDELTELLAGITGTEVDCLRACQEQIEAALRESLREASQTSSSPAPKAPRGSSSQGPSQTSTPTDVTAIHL
Procedure, shortened: as §1

CaMKIIβ(h) = CaMKIIβ(h) (Homo sapiens, UniProt Q13554)
Procedure, shortened: as §1

EGFR(h) = EGFR(h) (Homo sapiens, UniProt P00533)
EGFR(h), sequence (P00533 25-1210): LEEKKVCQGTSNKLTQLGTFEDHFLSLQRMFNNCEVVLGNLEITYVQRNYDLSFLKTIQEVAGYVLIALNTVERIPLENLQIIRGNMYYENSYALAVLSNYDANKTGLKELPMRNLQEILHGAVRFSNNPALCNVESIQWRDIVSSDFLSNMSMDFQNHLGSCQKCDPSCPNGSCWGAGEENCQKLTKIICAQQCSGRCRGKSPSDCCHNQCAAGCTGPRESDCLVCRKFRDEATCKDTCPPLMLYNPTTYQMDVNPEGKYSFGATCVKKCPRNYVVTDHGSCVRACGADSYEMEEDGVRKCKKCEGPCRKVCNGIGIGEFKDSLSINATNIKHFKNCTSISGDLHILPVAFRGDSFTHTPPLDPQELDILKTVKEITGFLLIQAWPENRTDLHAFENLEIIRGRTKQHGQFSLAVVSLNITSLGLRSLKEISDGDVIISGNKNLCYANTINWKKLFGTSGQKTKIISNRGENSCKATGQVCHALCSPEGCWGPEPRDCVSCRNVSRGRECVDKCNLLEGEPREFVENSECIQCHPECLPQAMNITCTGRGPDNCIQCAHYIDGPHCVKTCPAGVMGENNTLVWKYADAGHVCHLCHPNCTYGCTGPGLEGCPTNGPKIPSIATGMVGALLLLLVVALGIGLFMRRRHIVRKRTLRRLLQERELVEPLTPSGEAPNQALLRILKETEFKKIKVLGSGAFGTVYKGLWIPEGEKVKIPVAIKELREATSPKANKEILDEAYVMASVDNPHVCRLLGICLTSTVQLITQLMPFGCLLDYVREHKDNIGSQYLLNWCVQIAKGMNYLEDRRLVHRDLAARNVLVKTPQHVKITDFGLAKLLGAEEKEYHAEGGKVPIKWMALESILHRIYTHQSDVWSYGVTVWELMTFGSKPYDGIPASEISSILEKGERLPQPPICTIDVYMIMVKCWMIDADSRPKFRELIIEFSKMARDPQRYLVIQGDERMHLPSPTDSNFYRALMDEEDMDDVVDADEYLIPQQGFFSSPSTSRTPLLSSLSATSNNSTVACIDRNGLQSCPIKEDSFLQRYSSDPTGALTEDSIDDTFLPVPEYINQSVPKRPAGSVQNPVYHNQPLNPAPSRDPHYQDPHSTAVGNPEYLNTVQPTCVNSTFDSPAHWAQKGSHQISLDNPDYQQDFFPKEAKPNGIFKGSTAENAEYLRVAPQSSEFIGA
Procedure, shortened: as §1

EphA7(h) = EphA7(h) (Homo sapiens, UniProt Q15375)
Procedure, shortened: as §1

EphB1(h) = EphB1(h) (Homo sapiens, UniProt P54762)
Procedure, shortened: as §1

Fer(h) = Fer(h) (Homo sapiens, UniProt P16591)
Procedure, shortened: as §1

IGF-1R(h) = IGF-1R(h) (Homo sapiens, UniProt P08069)
Procedure, shortened: as §1

Itk(h) = Itk(h) (Homo sapiens, UniProt Q08881)
Procedure, shortened: as §1

JAK2(h) = JAK2(h) (Homo sapiens, UniProt O60674)
Procedure, shortened: as §1

MAPKAP-K3(h) = MAPKAP-K3(h) (Homo sapiens, UniProt Q16644)
Procedure, shortened: as §1

MSSK1(h) = MSSK1(h) (Homo sapiens, UniProt Q9UPE1)
Procedure, shortened: as §1

Mer(h) = Mer(h) (Homo sapiens, UniProt Q12866)
Procedure, shortened: as §1

PDGFRβ(h) = PDGFRβ(h) (Homo sapiens, UniProt P09619)
Procedure, shortened: as §1

[1] = target: PI3 Kinase (p110α(E545K)/p85α)(m) (Mus musculus, UniProt P42337, E545K)
Procedure, shortened: as §1

[2] = target: PI3 Kinase (p110α/p85α)(h) (Homo sapiens, UniProt P42336)
PI3 Kinase (p110α/p85α)(h), sequence (P42336 whole entry): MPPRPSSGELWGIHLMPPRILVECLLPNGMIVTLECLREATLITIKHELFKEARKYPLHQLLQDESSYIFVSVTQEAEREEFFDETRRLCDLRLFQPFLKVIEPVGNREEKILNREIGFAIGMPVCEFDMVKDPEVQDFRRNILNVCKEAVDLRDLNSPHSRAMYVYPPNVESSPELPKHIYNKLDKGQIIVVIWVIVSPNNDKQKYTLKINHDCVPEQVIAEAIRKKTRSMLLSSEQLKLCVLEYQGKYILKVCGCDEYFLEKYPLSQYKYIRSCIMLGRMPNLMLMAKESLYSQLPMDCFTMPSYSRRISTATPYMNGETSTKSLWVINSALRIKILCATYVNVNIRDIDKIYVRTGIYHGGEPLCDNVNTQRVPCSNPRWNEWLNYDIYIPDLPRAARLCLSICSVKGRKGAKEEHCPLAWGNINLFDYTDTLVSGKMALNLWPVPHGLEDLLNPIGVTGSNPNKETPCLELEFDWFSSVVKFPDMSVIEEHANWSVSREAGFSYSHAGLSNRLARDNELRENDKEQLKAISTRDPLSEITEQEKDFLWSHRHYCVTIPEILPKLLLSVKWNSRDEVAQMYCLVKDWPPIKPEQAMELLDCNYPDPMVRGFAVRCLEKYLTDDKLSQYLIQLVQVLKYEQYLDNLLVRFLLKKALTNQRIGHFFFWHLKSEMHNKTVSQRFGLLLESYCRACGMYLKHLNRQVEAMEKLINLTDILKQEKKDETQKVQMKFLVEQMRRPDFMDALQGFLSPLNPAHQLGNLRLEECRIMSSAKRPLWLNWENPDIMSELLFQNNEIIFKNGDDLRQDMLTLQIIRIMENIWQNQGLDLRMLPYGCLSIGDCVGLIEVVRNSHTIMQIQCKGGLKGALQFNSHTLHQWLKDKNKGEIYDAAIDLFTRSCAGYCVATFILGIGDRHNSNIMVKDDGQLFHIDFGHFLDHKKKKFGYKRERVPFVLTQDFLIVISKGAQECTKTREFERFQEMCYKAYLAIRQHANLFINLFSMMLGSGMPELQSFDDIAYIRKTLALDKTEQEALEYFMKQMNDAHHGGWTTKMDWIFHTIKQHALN
PI3 Kinase (p110α/p85α)(h), sequence (P27986 whole entry partner): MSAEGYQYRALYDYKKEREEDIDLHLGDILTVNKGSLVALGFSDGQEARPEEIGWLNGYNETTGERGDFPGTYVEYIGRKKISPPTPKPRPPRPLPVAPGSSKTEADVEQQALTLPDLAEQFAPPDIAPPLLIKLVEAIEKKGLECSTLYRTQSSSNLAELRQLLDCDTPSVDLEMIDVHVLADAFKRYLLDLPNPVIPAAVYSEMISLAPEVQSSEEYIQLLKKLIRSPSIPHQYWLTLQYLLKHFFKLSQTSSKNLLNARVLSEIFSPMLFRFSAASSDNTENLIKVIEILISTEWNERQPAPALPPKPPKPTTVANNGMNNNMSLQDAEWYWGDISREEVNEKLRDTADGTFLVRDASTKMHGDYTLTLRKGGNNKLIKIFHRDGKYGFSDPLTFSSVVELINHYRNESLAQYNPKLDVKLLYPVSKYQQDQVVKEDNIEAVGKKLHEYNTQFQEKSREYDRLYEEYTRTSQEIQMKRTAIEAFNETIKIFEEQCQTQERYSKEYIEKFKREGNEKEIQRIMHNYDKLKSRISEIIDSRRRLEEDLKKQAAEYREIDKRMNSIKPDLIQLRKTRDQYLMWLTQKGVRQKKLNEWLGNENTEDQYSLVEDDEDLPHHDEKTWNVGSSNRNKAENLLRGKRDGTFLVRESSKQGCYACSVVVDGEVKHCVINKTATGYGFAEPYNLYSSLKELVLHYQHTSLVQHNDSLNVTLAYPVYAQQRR
Procedure, shortened: as §1

PKBα(h) = PKBα(h) (Homo sapiens, UniProt P31749)
Procedure, shortened: as §1

PKD2(h) = PKD2(h) (Homo sapiens, UniProt Q9BZL6)
Procedure, shortened: as §1

Ron(h) = Ron(h) (Homo sapiens, UniProt Q04912)
Procedure, shortened: as §1

Rsk1(r) = Rsk1(r) (Rattus norvegicus, UniProt Q63531)
Procedure, shortened: as §1

SAPK3(h) = SAPK3(h) (Homo sapiens, UniProt P53778)
Procedure, shortened: as §1

SRPK2(h) = SRPK2(h) (Homo sapiens, UniProt P78362)
Procedure, shortened: as §1

Snk(h) = Snk(h) (Homo sapiens, UniProt Q9NYY3)
Procedure, shortened: as §1

Tie2(R849W)(h) = Tie2(R849W)(h) (Homo sapiens, UniProt Q02763, R849W)
Procedure, shortened: as §1

VRK2(h) = VRK2(h) (Homo sapiens, UniProt Q86Y07)
Procedure, shortened: as §1

cKit(V560G)(h) = cKit(V560G)(h) (Homo sapiens, UniProt P10721, V560G)
Procedure, shortened: as §1

eEF-2K(h) = eEF-2K(h) (Homo sapiens, UniProt O00418)
Procedure, shortened: as §1

mTOR/FKBP12(h) = mTOR/FKBP12(h) (Homo sapiens, UniProt P42345)
mTOR/FKBP12(h), sequence (P42345 1362-2549): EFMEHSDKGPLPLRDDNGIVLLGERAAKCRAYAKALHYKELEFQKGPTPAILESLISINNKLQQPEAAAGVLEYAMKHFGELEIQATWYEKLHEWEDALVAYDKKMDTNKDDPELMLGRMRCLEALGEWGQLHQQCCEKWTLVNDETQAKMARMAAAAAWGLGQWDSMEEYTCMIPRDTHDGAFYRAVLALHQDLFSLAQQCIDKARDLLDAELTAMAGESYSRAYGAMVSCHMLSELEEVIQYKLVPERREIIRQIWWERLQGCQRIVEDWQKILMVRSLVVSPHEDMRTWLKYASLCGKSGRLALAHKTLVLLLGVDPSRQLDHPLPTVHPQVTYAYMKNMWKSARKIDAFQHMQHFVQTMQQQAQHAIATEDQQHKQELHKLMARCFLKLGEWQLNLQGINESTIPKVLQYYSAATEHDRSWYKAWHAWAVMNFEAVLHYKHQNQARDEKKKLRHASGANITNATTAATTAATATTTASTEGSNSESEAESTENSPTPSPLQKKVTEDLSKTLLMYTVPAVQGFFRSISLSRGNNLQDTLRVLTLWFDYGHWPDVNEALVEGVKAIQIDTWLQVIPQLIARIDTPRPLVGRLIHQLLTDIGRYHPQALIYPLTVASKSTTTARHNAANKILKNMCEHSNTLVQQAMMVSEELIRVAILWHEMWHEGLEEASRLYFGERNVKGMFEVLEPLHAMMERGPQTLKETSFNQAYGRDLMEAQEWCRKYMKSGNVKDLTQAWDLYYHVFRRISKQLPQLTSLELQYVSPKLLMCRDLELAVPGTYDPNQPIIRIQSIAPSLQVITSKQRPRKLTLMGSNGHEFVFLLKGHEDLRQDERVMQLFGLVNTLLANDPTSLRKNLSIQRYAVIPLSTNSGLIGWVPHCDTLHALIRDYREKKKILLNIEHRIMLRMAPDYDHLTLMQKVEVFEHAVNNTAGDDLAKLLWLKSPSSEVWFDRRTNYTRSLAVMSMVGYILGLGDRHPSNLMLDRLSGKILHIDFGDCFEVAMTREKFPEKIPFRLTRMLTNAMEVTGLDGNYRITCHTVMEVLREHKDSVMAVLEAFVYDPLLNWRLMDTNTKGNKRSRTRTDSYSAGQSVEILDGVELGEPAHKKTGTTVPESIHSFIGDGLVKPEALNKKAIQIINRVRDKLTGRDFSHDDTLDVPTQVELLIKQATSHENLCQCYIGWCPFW
Procedure, shortened: as §1

SMILES	inhibition at 0.1 µM (Blk(h))	inhibition at 0.1 µM (BrSK1(h))	inhibition at 0.1 µM (CDK2/cyclinA(h))	inhibition at 0.1 µM (CDK5/p35(h))	inhibition at 0.1 µM (CDK6/cyclinD3(h))	inhibition at 0.1 µM (CaMKIIβ(h))	inhibition at 0.1 µM (EGFR(h))	inhibition at 0.1 µM (EphA7(h))	inhibition at 0.1 µM (EphB1(h))	inhibition at 0.1 µM (Fer(h))	inhibition at 0.1 µM (IGF-1R(h))	inhibition at 0.1 µM (Itk(h))	inhibition at 0.1 µM (JAK2(h))	inhibition at 0.1 µM (MAPKAP-K3(h))	inhibition at 0.1 µM (MSSK1(h))	inhibition at 0.1 µM (Mer(h))	inhibition at 0.1 µM (PDGFRβ(h))	inhibition at 0.1 µM [1]	inhibition at 0.1 µM [2]	inhibition at 0.1 µM (PKBα(h))	also measured
Cc1cc2c(F)c(Oc3nc(Nc4cc(C5CC5)[nH]n4)cc(N4CCN(C)CC4)n3)ccc2[nH]1 [Compound 10]	94%	47%	5%	20%	-5%	-5%	-8%	23%	101%	38%	78%	31%	92%	4%	22%	97%	28%	0%	-1%	-24%	inhibition at 0.1 µM (PKD2(h)): -5%; inhibition at 0.1 µM (Ron(h)): 34%; inhibition at 0.1 µM (Rsk1(r)): 16%; inhibition at 0.1 µM (SAPK3(h)): -4%; inhibition at 0.1 µM (SRPK2(h)): 6%; inhibition at 0.1 µM (Snk(h)): 9%; inhibition at 0.1 µM (Tie2(R849W)(h)): 88%; inhibition at 0.1 µM (VRK2(h)): 34%; inhibition at 0.1 µM (cKit(V560G)(h)): 89%; inhibition at 0.1 µM (eEF-2K(h)): -15%; inhibition at 0.1 µM (mTOR/FKBP12(h)): -14%
Cc1cc2c(F)c(Oc3nc(Nc4cc(C5CC5)[nH]n4)cc(N4CCNCC4)n3)ccc2[nH]1 [Compound 11, N-(5-cyclopropyl-1H-pyrazol-3-yl)-2-((4-fluoro-2-methyl-1H-indol-5-yl)oxy)-6-(piperazin-1-yl)pyrimidin-4-amine]	94%	40%	3%	78%	11%	8%	-6%	34%	100%	45%	62%	54%	99%	-15%	0%	96%	24%	1%	5%	-4%	inhibition at 0.1 µM (PKD2(h)): -1%; inhibition at 0.1 µM (Ron(h)): 43%; inhibition at 0.1 µM (Rsk1(r)): 14%; inhibition at 0.1 µM (SAPK3(h)): -24%; inhibition at 0.1 µM (SRPK2(h)): 0%; inhibition at 0.1 µM (Snk(h)): 5%; inhibition at 0.1 µM (Tie2(R849W)(h)): 93%; inhibition at 0.1 µM (VRK2(h)): 4%; inhibition at 0.1 µM (cKit(V560G)(h)): 94%; inhibition at 0.1 µM (eEF-2K(h)): 10%; inhibition at 0.1 µM (mTOR/FKBP12(h)): -9%
